In patent publication US9840495B2, “Oxindole derivatives carrying a piperidyl-substituted azetidinyl substituent and use thereof for treating vasopressine-related diseases” (AbbVie Deutschland GmbH & Co. KG, priority 2013, dated 2017):
pKi: −log10 of the molar value.

Legend:
[1] = molecular target: T1, human vasopressin V1b receptor (Homo sapiens, UniProt P47901); assay: biochemical
T1 sequence (P47901 1-424): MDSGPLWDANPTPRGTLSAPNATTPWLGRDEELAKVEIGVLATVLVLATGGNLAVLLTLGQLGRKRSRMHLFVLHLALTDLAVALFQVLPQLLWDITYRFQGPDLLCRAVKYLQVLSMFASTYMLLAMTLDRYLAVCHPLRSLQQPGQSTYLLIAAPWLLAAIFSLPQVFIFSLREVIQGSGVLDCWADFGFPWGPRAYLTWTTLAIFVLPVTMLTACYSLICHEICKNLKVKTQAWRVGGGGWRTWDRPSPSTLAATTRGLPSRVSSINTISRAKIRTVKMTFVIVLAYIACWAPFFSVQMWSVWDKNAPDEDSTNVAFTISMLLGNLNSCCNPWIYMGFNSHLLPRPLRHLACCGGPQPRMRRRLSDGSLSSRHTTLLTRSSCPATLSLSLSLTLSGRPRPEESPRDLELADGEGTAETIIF

[2] = molecular target: human vasopressin V1a receptor (Homo sapiens, UniProt P37288); assay: Vasopressin V1a receptor binding assay (125I-AVP displacement, CHO-K1 membranes); details: selectivity quotient, human V1a vs human V1b receptor binding
Sequence of human vasopressin V1a receptor (P37288 whole entry): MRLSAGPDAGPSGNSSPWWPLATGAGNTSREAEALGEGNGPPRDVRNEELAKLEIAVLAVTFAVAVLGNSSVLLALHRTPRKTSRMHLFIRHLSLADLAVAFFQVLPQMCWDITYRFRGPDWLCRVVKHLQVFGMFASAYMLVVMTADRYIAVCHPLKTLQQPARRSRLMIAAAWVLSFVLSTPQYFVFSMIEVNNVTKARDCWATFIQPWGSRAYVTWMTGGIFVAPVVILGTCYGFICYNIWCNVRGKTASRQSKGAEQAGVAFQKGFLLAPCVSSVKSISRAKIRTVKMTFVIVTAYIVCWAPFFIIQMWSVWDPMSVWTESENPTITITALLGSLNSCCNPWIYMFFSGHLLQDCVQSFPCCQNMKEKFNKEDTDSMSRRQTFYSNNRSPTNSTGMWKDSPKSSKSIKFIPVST

| Compound | pKi [1] | Ki(h-V1a)/Ki(h-V1b) [2] |
| --- | --- | --- |
| CCOc1ncccc1[C@]1(NC(=O)N2CC(N3CCC(N4CCC5(CC4)COC5)CC3)C2)C(=O)N(S(=O)(=O)c2ccc(OC)cc2OC)c2ccc(C#N)cc21 [Example 6, (S)-3-(4-(2-Oxa-7-Azaspiro[3.5]nonan-7-yl)piperidin-1-yl)-N-(5-cyano-1-((2,4-dimethoxyphenyl)sulfonyl)-3-(2-ethoxypyridin-3-yl)-2-oxoindolin-3-yl)azetidine-1-carboxamide] | 8.00 to 9.00 | +++ (>75) |
| COc1ccc(S(=O)(=O)N2C(=O)[C@@](NC(=O)N3CC(N4CCC(N(C)C5CCOCC5)CC4)C3)(c3cccnc3OC)c3cc(C#N)ccc32)c(OC)c1 [Example 21, (S)—N-(5-Cyano-1-((2,4-dimethoxyphenyl)sulfonyl)-3-(2-methoxypyridin-3-yl)-2-oxoindolin-3-yl)-3-(4-(methyl(tetrahydro-2H-pyran-4-yl)amino)piperidin-1-yl)azetidine-1-carboxamide] | > 9.00 | + (10-<25) |
| COc1ccccc1S(=O)(=O)N1C(=O)[C@@](NC(=O)N2CC(N3CCC(N(C)C4COC4)CC3)C2)(c2cccnc2OC)c2cc(C#N)ccc21 [Example 29, (S)—N-(5-Cyano-1-((2-methoxyphenyl)sulfonyl)-3-(2-methoxypyridin-3-yl)-2-oxoindolin-3-yl)-3-(4-(methyl(oxetan-3-yl)amino)piperidin-1-yl)azetidine-1-carboxamide] | 8.00 to 9.00 | + (10-<25) |
| COc1ccc(S(=O)(=O)N2C(=O)[C@@](NC(=O)N3CC(N4CCC(NC5COC5)CC4)C3)(c3cccnc3OC)c3cc(C#N)ccc32)c(OC)c1 [Example 20, (S)—N-(5-Cyano-1-((2,4-dimethoxyphenyl)sulfonyl)-3-(2-methoxypyridin-3-yl)-2-oxoindolin-3-yl)-3-(4-(oxetan-3-ylamino)piperidin-1-yl)azetidine-1-carboxamide] | 8.00 to 9.00 | + (10-<25) |
| COc1ncccc1[C@]1(NC(=O)N2CC(N3CCC(N(C)C4COC4)CC3)C2)C(=O)N(S(=O)(=O)c2ccc(F)cc2F)c2ccc(C#N)cc21 [Example 33, (S)—N-(5-Cyano-1-((2,4-difluorophenyl)sulfonyl)-3-(2-methoxypyridin-3-yl)-2-oxoindolin-3-yl)-3-(4-(methyl(oxetan-3-yl)amino)piperidin-1-yl)azetidine-1-carboxamide] | 7.00 to 8.00 | + (10-<25) |
| CCOc1ncccc1[C@]1(NC(=O)N2CC(N3CCC(N4CCC(F)(F)CC4)CC3)C2)C(=O)N(S(=O)(=O)c2ccc(OC)cc2OC)c2ccc(C#N)cc21 [Example 40, (S)—N-(5-Cyano-1-((2,4-dimethoxyphenyl)sulfonyl)-3-(2-ethoxypyridin-3-yl)-2-oxoindolin-3-yl)-3-(4,4-difluoro-[1,4′-bipiperidin]-1′-yl)azetidine-1-carboxamide] | > 9.00 | +++ (>75) |
| CCOc1ncccc1[C@]1(NC(=O)N2CC(N3CCC(N4CCC(OC)CC4)CC3)C2)C(=O)N(S(=O)(=O)c2ccc(OC)cc2OC)c2ccc(C#N)cc21 [Example 42, (S)—N-(5-Cyano-1-((2,4-dimethoxyphenyl)sulfonyl)-3-(2-ethoxypyridin-3-yl)-2-oxoindolin-3-yl)-3-(4-methoxy-[1,4′-bipiperidin]-1′-yl)azetidine-1-carboxamide] | 8.00 to 9.00 | +++ (>75) |
| CCOc1ncccc1[C@]1(NC(=O)N2CC(N3CCC(N4CC5(COC5)C4)CC3)C2)C(=O)N(S(=O)(=O)c2ccc(OC)cc2OC)c2ccc(C#N)cc21 [Example 19, (S)-3-(4-(2-Oxa-6-azaspiro[3.3]heptan-6-yl)piperidin-1-yl)-N-(5-cyano-1-((2,4-dimethoxyphenyl)sulfonyl)-3-(2-ethoxypyridin-3-yl)-2-oxoindolin-3-yl)azetidine-1-carboxamide] | > 9.00 | +++ (>75) |
| CCOc1ncccc1[C@]1(NC(=O)N2CC(N3CCC(N4CCOCC4)CC3)C2)C(=O)N(S(=O)(=O)c2ccccc2OC)c2ccc(C#N)cc21 [Example 37, (S)—N-(5-Cyano-3-(2-ethoxypyridin-3-yl)-1-((2-methoxyphenyl)sulfonyl)-2-oxoindolin-3-yl)-3-(4-morpholinopiperidin-1-yl)azetidine-1-carboxamide] | 8.00 to 9.00 | +++ (>75) |
| COc1ccc(S(=O)(=O)N2C(=O)[C@@](NC(=O)N3CC(N4CCC(N(C(C)C)C5COC5)CC4)C3)(c3cccnc3OC)c3cc(C#N)ccc32)c(OC)c1 [Example 38, (S)—N-(5-Cyano-1-((2,4-dimethoxyphenyl)sulfonyl)-3-(2-methoxypyridin-3-yl)-2-oxoindolin-3-yl)-3-(4-(isopropyl(oxetan-3-yl)amino)piperidin-1-yl)azetidine-1-carboxamide] | 7.00 to 8.00 | + (10-<25) |
| CCOc1ncccc1[C@]1(NC(=O)N2CC(N3CCC(N4CCCO4)CC3)C2)C(=O)N(S(=O)(=O)c2ccc(OC)cc2OC)c2ccc(C#N)cc21 [Example 17, (S)—N-(5-Cyano-1-((2,4-dimethoxyphenyl)sulfonyl)-3-(2-ethoxypyridin-3-yl)-2-oxoindolin-3-yl)-3-(4-(isoxazolidin-2-yl)piperidin-1-yl)azetidine-1-carboxamide] | 7.00 to 8.00 | +++ (>75) |
| CCOc1ncccc1[C@]1(NC(=O)N2CC(N3CCC(N4CCOCC4)CC3)C2)C(=O)N(S(=O)(=O)c2ccc(F)cc2OC)c2ccc(C#N)cc21 [Example 28, (S)—N-(5-cyano-3-(2-ethoxypyridin-3-yl)-1-((4-fluoro-2-methoxyphenyl)sulfonyl)-2-oxoindolin-3-yl)-3-(4-morpholinopiperidin-1-yl)azetidine-1-carboxamide] | 8.00 to 9.00 | +++ (>75) |
| COc1ncccc1[C@]1(NC(=O)N2CC(N3CCC(N(C)C4COC4)CC3)C2)C(=O)N(S(=O)(=O)c2ccc(F)cc2)c2ccc(C#N)cc21 [Example 31, (S)—N-(5-Cyano-1-((4-fluorophenyl)sulfonyl)-3-(2-methoxypyridin-3-yl)-2-oxoindolin-3-yl)-3-(4-(methyl(oxetan-3-yl)amino)piperidin-1-yl)azetidine-1-carboxamide] | 8.00 to 9.00 | + (10-<25) |
| CCN(C1CCN(C2CN(C(=O)N[C@@]3(c4cccnc4OC)C(=O)N(S(=O)(=O)c4ccc(OC)cc4OC)c4ccc(C#N)cc43)C2)CC1)C1COC1 [Example 23, (S)—N-(5-Cyano-1-((2,4-dimethoxyphenyl)sulfonyl)-3-(2-methoxypyridin-3-yl)-2-oxoindolin-3-yl)-3-(4-(ethyl(oxetan-3-yl)amino)piperidin-1-yl)azetidine-1-carboxamide] | 8.00 to 9.00 | ++ (25-75) |
| COc1ccc(S(=O)(=O)N2C(=O)[C@@](NC(=O)N3CC(N4CCC(N(C)C5COC5)CC4)C3)(c3cccnc3OC)c3cc(C#N)ccc32)c(F)c1 [Example 32, (S)—N-(5-Cyano-1-((2-fluoro-4-methoxyphenyl)sulfonyl)-3-(2-methoxypyridin-3-yl)-2-oxoindolin-3-yl)-3-(4-(methyl(oxetan-3-yl)amino)piperidin-1-yl)azetidine-1-carboxamide] | 8.00 to 9.00 | + (10-<25) |
| COc1ccc(S(=O)(=O)N2C(=O)[C@@](NC(=O)N3CC(N4CCC(N5CCOCC5)CC4)C3)(c3cc(OC)ccc3OC)c3cc(C#N)ccc32)c(OC)c1 [Example 45, (S)—N-(5-Cyano-3-(2,5-dimethoxyphenyl)-1-((2,4-dimethoxyphenyl)sulfonyl)-2-oxoindolin-3-yl)-3-(4-morpholinopiperidin-1-yl)azetidine-1-carboxamide] | > 9.00 | + (10-<25) |
| CCOc1ncccc1[C@]1(NC(=O)N2CC(N3CCC(N4CC(OC)C4)CC3)C2)C(=O)N(S(=O)(=O)c2ccc(OC)cc2OC)c2ccc(C#N)cc21 [Example 41, (S)—N-(5-Cyano-1-((2,4-dimethoxyphenyl)sulfonyl)-3-(2-ethoxypyridin-3-yl)-2-oxoindolin-3-yl)-3-(4-(3-methoxyazetidin-1-yl)piperidin-1-yl)azetidine-1-carboxamide] | 8.00 to 9.00 | +++ (>75) |
| CCOc1ncccc1[C@]1(NC(=O)N2CC(N3CCC(N4CCOCC4)CC3)C2)C(=O)N(S(=O)(=O)c2ccc(OC)cc2OC)c2ccc(Cl)cc21 [Example 13, (S)—N-(5-Chloro-1-((2,4-dimethoxyphenyl)sulfonyl)-3-(2-ethoxypyridin-3-yl)-2-oxoindolin-3-yl)-3-(4-morpholinopiperidin-1-yl)azetidine-1-carboxamide] | > 9.00 | – |
| CCOc1ncccc1[C@]1(NC(=O)N2CC(N3CCC(N4CCOCC4)CC3)C2)C(=O)N(S(=O)(=O)c2ccc(F)cc2F)c2ccc(C#N)cc21 [Example 26, (S)—N-(5-Cyano-1-((2,4-difluorophenyl)sulfonyl)-3-(2-ethoxypyridin-3-yl)-2-oxoindolin-3-yl)-3-(4-morpholinopiperidin-1-yl)azetidine-1-carboxamide] | 8.00 to 9.00 | – |
| CCOc1ncccc1[C@]1(NC(=O)N2CC(N3CCC(N(C)C4COC4)CC3)C2)C(=O)N(S(=O)(=O)c2ccc(OC)cc2OC)c2ccc(Cl)cc21 [Example 14, (S)—N-(5-Chloro-1-((2,4-dimethoxyphenyl)sulfonyl)-3-(2-ethoxypyridin-3-yl)-2-oxoindolin-3-yl)-3-(4-(methyl(oxetan-3-yl)amino)piperidin-1-yl)azetidine-1-carboxamide] | > 9.00 | – |
